Series [1] has as its target T1, NAD-dependent protein deacetylase sirtuin-3, mitochondrial (Homo sapiens, UniProt Q9NTG7).
T1 sequence (Q9NTG7 whole entry): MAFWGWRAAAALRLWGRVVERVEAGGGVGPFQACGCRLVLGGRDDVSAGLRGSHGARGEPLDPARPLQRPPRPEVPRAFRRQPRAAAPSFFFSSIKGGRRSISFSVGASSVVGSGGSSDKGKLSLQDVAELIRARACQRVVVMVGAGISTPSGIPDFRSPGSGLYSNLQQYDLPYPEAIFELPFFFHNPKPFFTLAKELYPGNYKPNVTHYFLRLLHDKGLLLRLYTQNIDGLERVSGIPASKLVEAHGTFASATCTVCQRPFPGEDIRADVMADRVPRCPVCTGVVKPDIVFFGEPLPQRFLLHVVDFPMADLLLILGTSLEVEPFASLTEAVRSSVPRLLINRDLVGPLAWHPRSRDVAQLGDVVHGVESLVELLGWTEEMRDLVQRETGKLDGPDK
As to the kind of experiment: Inhibitory activity against recombinant human SIRT3 expressed in Escherichia coli by fluorimetric assay.

Another series concerns the target Histone deacetylase. Description: Inhibitory activity against human HDAC in HeLa cell extract by fluorimetric assay. Type of series: cell-free.
A further series concerns the target CYP3A4 (Homo sapiens, UniProt P08684). Description: Percent inhibitory activity against human CYP3A4 at 1uM. The class given is ADME.
Another series deals with CYP2D6 (Homo sapiens, UniProt P10635). Description: Percent inhibitory activity against human CYP2D6 at 1uM. Type of series: ADME.
Chain of CYP2D6 (P10635 whole entry): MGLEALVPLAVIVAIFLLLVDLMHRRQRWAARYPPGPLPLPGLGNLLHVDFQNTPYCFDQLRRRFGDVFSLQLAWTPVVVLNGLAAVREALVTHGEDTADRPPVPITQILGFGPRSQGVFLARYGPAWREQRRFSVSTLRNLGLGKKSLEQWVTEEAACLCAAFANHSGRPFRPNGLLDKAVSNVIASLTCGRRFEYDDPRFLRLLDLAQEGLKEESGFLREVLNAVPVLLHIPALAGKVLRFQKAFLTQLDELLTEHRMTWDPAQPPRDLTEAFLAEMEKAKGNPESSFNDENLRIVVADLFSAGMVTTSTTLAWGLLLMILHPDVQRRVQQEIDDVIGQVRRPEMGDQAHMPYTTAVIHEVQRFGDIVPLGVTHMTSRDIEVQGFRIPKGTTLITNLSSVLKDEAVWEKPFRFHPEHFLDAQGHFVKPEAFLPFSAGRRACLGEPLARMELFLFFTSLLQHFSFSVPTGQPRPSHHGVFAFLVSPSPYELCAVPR
For another series, the target named is CYP2C9 (Homo sapiens, UniProt P11712). Description: Percent inhibitory activity against human CYP2C9 at 1uM. Type of series: ADME.
Chain of CYP2C9 (P11712 whole entry): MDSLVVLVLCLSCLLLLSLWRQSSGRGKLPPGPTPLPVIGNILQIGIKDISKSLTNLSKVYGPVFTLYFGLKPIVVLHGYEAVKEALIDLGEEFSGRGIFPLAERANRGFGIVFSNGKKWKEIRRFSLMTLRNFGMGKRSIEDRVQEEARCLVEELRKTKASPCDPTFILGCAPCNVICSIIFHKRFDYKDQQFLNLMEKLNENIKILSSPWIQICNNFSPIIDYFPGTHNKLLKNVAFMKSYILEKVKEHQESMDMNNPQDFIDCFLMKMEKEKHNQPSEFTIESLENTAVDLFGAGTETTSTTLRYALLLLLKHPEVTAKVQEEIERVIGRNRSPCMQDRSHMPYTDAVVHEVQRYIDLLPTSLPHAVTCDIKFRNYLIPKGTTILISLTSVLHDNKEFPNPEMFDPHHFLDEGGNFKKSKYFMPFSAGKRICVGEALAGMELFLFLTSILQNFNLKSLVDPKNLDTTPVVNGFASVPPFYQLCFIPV
In a further series the target is CYP2C19 (Homo sapiens, UniProt P33261). As to the kind of experiment: Percent inhibitory activity against human CYP2C19 at 1uM. The class given is ADME.
Chain of CYP2C19 (P33261 whole entry): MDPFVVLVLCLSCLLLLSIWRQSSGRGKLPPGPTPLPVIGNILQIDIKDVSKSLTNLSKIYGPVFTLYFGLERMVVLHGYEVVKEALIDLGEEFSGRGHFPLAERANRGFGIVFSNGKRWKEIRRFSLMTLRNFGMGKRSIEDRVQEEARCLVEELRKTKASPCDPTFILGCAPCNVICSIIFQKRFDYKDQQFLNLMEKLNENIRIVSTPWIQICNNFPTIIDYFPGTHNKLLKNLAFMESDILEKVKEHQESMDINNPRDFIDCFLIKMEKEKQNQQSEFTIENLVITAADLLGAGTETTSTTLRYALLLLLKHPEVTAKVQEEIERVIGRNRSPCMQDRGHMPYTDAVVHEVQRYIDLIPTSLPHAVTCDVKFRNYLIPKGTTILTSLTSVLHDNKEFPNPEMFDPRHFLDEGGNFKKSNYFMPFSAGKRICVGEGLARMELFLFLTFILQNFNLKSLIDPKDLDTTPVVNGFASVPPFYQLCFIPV
Another series has as its target T2, CYP1A2 (Homo sapiens, UniProt P05177).
T2 sequence (P05177 whole entry): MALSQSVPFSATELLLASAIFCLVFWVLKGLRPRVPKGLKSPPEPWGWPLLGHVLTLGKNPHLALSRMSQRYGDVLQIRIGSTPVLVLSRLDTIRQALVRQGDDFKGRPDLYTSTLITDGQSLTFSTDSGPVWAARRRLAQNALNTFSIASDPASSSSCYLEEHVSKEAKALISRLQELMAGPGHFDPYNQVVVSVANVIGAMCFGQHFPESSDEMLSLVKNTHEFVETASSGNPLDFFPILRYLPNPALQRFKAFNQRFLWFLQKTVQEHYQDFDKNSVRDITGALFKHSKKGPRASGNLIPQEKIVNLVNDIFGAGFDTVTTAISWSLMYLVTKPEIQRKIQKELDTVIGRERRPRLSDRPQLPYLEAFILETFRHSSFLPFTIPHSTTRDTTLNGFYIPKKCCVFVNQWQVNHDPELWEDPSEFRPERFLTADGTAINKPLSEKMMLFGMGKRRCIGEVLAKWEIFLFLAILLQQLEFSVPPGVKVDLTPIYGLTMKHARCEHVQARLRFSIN
Description: Percent inhibitory activity against human CYP1A2 at 1uM. The class given is ADME.

Series [2] addresses hERG (KCNH2) potassium channel (Homo sapiens, UniProt Q12809). Description: Percentage inhibitory activity against hERG potassium channel transfected in CHO cells at 10uM. The following applies: CHO cells transfected with hERG.
Series [3] has as its target T3, NAD-dependent protein deacetylase sirtuin-2 (Homo sapiens, UniProt Q8IXJ6).
T3 sequence (Q8IXJ6 whole entry): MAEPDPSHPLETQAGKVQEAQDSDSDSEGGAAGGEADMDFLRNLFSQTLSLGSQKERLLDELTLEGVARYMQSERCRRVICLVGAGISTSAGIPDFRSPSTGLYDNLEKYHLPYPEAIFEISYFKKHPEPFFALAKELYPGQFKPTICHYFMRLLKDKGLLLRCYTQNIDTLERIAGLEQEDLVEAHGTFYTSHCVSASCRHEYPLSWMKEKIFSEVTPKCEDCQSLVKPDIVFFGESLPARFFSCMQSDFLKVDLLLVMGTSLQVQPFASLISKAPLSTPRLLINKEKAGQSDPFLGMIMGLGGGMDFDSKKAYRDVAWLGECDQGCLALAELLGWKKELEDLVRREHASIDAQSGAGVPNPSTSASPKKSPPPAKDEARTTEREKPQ
Description: Inhibitory activity against recombinant human SIRT2 expressed in Escherichia coli by fluorimetric assay

For series [4], the target named is T4, NAD-dependent protein deacetylase sirtuin-1 (Homo sapiens, UniProt Q96EB6).
T4 sequence (Q96EB6 whole entry): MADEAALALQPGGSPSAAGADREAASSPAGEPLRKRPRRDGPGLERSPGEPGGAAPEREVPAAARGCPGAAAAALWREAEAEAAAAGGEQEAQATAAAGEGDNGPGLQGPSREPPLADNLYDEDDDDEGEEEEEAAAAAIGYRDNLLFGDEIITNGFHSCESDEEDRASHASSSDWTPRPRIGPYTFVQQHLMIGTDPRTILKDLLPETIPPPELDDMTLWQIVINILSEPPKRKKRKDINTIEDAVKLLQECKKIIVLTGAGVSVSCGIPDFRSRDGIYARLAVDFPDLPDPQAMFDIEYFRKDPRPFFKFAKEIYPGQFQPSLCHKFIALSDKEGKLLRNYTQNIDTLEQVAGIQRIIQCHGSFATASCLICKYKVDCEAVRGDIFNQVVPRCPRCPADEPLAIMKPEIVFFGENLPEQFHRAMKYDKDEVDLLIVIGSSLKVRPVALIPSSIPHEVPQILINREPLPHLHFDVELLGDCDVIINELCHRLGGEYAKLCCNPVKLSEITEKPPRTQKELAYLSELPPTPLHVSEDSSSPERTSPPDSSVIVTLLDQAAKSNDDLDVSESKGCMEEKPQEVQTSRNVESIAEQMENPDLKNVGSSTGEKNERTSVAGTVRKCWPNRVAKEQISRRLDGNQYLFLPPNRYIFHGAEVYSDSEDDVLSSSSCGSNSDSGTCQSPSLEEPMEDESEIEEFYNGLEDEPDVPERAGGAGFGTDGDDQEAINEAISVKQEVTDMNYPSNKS
Description: Inhibitory activity against recombinant human SIRT1 expressed in Escherichia coli by fluorimetric assay

The target in series [5] is T4, NAD-dependent protein deacetylase sirtuin-1. This is another data set of the same source.
Description: Inhibitory activity against human SIRT1 by radiochemical Nicotinamide release assay
Series [6] is described as follows: Half life in rat liver microsomes. The class given is ADME, Microsome.
For another series, the system named is Liver microsomes. Description: Stability in rat liver microsomes at 10 uM. Type of series: ADME, Microsome.
Series [7] can be described thus: Serum half life in mice administered with 10 mg/kg, po. Set-up: dose 10 mg/kg, route oral. The class given is ADME, organism-based. The following applies: C57bl/6J, mouse.

Chain of hERG (KCNH2) potassium channel (Q12809 whole entry): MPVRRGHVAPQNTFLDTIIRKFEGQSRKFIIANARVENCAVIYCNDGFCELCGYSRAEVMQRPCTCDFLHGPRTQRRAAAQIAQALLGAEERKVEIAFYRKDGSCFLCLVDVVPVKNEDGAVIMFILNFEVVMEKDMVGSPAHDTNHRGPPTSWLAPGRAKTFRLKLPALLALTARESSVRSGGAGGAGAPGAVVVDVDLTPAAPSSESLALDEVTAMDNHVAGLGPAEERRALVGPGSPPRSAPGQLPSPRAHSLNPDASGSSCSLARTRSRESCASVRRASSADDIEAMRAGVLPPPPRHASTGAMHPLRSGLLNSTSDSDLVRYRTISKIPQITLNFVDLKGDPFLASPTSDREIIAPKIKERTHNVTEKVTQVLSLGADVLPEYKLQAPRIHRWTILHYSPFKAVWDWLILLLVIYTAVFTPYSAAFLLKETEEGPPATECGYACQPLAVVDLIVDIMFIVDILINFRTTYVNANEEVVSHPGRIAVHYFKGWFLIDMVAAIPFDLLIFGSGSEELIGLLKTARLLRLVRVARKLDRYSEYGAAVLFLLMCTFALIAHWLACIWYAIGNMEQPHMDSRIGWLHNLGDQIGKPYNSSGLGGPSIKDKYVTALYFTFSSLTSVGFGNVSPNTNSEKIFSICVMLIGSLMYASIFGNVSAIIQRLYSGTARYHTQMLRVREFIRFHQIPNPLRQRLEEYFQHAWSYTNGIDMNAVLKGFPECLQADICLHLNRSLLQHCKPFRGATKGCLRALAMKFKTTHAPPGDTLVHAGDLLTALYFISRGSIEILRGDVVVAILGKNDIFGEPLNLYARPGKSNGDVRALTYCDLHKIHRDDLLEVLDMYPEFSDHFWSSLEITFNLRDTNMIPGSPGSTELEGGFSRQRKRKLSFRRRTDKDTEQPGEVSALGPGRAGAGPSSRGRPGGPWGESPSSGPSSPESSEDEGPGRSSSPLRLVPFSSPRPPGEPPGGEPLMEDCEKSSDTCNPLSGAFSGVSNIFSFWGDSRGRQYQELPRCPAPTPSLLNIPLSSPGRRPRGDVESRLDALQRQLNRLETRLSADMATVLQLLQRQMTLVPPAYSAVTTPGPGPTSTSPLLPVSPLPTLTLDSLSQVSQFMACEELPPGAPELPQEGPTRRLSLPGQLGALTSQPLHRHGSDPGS
Chain of CYP3A4 (P08684 whole entry): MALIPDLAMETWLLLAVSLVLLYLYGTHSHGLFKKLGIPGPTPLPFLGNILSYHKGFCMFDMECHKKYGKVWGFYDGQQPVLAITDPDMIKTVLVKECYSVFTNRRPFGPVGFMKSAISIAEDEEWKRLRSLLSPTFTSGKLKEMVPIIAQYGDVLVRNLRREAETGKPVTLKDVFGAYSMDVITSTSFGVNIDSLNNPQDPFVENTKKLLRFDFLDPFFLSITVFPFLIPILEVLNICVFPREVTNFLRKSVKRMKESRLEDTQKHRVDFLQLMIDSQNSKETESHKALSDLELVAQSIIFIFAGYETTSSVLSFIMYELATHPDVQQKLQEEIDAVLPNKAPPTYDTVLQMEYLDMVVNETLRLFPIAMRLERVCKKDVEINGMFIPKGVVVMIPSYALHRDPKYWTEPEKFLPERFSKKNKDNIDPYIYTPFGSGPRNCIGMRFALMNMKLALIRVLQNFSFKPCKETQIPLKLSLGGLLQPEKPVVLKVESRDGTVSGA

On to `NC(=O)C1CCCc2c1[nH]c1ccccc21` (configuration not stated), for which the IC50 in series [1] is over 100 µM; at Histone deacetylase it was over 100 µM; in [3] it was 24.8 µM. Besides, the inhibition at 1 µM against CYP3A4 is -22%; against CYP2D6, -4%; against CYP2C9, -8%; on CYP2C19, 5%; against CYP1A2, 4%. In addition, in series [2], the inhibition at 10 µM stood at 0%.

Turning to `Cc1ccc2[nH]c3c(c2c1)CCCC3C(N)=O` (configuration not stated), the IC50 in series [1] was over 100 µM; against Histone deacetylase, over 100 µM; in [4], 0.205 µM; in series [3], 11.5 µM; in series [5] it was 2.5 µM. The inhibition at 1 µM against CYP3A4 is -16%; against CYP2D6, -3%; against CYP2C9, -9%; against CYP2C19 it was 9%; against CYP1A2, 7%. Besides, in [2], the inhibition at 10 µM was 0%.

In turn, `CCOC(=O)C1CCCc2c1[nH]c1ccc(Cl)cc21` (configuration not stated) had an IC50 in series [4] of over 100 µM.

`NC(=O)CNC(=O)C1CCCc2c1[nH]c1ccc(Cl)cc21` (configuration not stated) displayed a half-maximal inhibitory concentration (IC50) in series [4] of over 100 µM.

In series [4], `O=C(O)C1CCCc2c1[nH]c1ccc(Cl)cc21` (configuration not stated) came in with an IC50 of over 100 µM.

For the molecule `O=C(NO)C1CCCc2c1[nH]c1ccc(Cl)cc21` (configuration not stated), in series [4], it took 77.6 µM to reach half-maximal inhibition (IC50).

As to `NC(=O)C1CCc2c([nH]c3ccc(Cl)cc23)C1` (configuration not stated), in [4], the IC50 came to 34.5 µM.

As for `Cc1ccc2[nH]c3c(c2c1)CCCC3CN` (configuration not stated), the IC50 in series [4] was over 100 µM.

For the molecule `CCNC(=O)C1CCCc2c1[nH]c1ccc(Cl)cc21` (configuration not stated), in series [4], the 50% inhibitory concentration (IC50) was over 100 µM.

As to `NC(=O)C1CCc2c1[nH]c1ccc(Cl)cc21` (configuration not stated), in [4], the IC50 worked out at 0.409 µM.

For the molecule `NC(=O)C1CCc2c1[nH]c1ccccc21` (configuration not stated), the midpoint of inhibition in series [4], the IC50, lay at 2.67 µM.

Turning to `CC(=O)N1CCc2c([nH]c3ccc(Cl)cc23)C1C(N)=O` (configuration not stated), the IC50 in series [4] came out at 79.9 µM.

In series [4], `Cc1ccc2c(c1)c1c(n2C)C(C(N)=O)CCC1` (configuration not stated) returned an IC50 of over 100 µM.

Turning to `CCN(CC)C(=O)C1CCCc2c1[nH]c1ccc(Cl)cc21` (configuration not stated), the IC50 in series [4] is over 100 µM.

Turning to `NC(=O)C1CCc2c([nH]c3ccc(Br)cc23)C1` (configuration not stated), half-maximal inhibition in series [4] (IC50) required 2.44 µM.

`NC(=O)C1CCCc2c1[nH]c1ccc(O)cc21` (configuration not stated) gave an IC50 in [4] of 15 µM.

On to `NC(=O)C1NCCc2c1[nH]c1ccc(Cl)cc21` (configuration not stated), for which the IC50 in [4] is 18 µM.

With `NC(=O)C1NCCc2c1[nH]c1ccc(Br)cc21` (configuration not stated), the IC50 in series [4] is over 100 µM.

On to `Cc1ccc2[nH]c3c(c2c1)CCCC3(C)C(N)=O` (configuration not stated), for which half-maximal inhibition in series [4] (IC50) was put at 13 µM.

Turning to `NC(=O)C1CCCc2c1[nH]c1ccc(Cl)cc21` (configuration not stated), on Histone deacetylase, the IC50 is over 100 µM. The inhibition at 1 µM is -26% on CYP3A4; -5% against CYP2D6; -5% at CYP2C9; 6% against CYP2C19; 11% on CYP1A2. For the same molecule, in series [2], the inhibition at 10 µM was 0%. The half-life in series [6] is over 1 h; in [7], 2.27 h. Moreover, the Stability result in the series on Liver microsomes is given as “Stable”.

For the molecule `NC(=O)C1CCCCc2c1[nH]c1ccc(Cl)cc21` (configuration not stated), the IC50 (in series [1]; at Histone deacetylase) was over 100 µM throughout. Also, the inhibition at 1 µM against CYP3A4 is -12%; against CYP2D6, 3%; against CYP2C9 it was 11%; against CYP2C19 it was 23%; against CYP1A2, 23%. Moreover, the half-life in series [6] is over 1 h; in series [7] it was 1.57 h. Also, the Stability result in the series with Liver microsomes is “Stable”.

The values are drawn from ChEMBL document CHEMBL1140425, “Discovery of indoles as potent and selective inhibitors of the deacetylase SIRT1” (J Med Chem, 2005).
